Results from PubChem BioAssay AID248 (DTP/NCI, 2004).
Values joined by “and” are separate entries in the source; they are usually repeats but may differ in a detail not shown here. Identical values can stand only once. Toxic doses and inconclusive results are not listed. Rule as the data show it: active = T/C of 150% or more; inactive = T/C below 125%.

Test system: L1210 leukemia ip in BDF1 mice, survival T/C
Experiment: NCI In Vivo Anticancer Drug Screen. Data for tumor model L1210 Leukemia (intraperitoneal) in B6D2F1 (BDF1) mice
Conditions: endpoint: mean survival time, higher = longer survival
In short: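 Survival endpoint. Drug-treated group vs vehicle group, expressed as T divided by C. Tumor passaged by transplantation.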

[1] = dose: 75.0 mg/kg/injection, schedule: Q01DX001 (ip), vehicle: saline
[2] = dose: 300.0 mg/kg/injection, schedule: Q01DX001 (ip), vehicle: saline
[3] = dose: 100.0 mg/kg/injection, schedule: Q01DX009 (ip), vehicle: Klucel (hydroxypropylcellulose) (HPC)
[4] = dose: 100.0 mg/kg/injection, schedule: Q04DX003 (ip), vehicle: Klucel (hydroxypropylcellulose) (HPC)
[5] = dose: 200.0 mg/kg/injection, schedule: Q01DX009 (ip), vehicle: Klucel (hydroxypropylcellulose) (HPC)
[6] = dose: 200.0 mg/kg/injection, schedule: Q04DX003 (ip), vehicle: Klucel (hydroxypropylcellulose) (HPC)
[7] = dose: 400.0 mg/kg/injection, schedule: Q01DX009 (ip), vehicle: Klucel (hydroxypropylcellulose) (HPC)
[8] = dose: 400.0 mg/kg/injection, schedule: Q04DX003 (ip), vehicle: Klucel (hydroxypropylcellulose) (HPC)
[9] = dose: 100.0 mg/kg/injection, schedule: Q01DX009 (ip), vehicle: saline with Tween-80
[10] = dose: 200.0 mg/kg/injection, schedule: Q01DX009 (ip), vehicle: saline with Tween-80
[11] = dose: 400.0 mg/kg/injection, schedule: Q01DX009 (ip), vehicle: saline with Tween-80
[12] = dose: 100.0 mg/kg/injection, schedule: Q01DX001 (ip), vehicle: Klucel (hydroxypropylcellulose) (HPC)
[13] = dose: 100.0 mg/kg/injection, schedule: Q04DX003 (ip), vehicle: saline with Tween-80
[14] = dose: 200.0 mg/kg/injection, schedule: Q01DX001 (ip), vehicle: Klucel (hydroxypropylcellulose) (HPC)
[15] = dose: 200.0 mg/kg/injection, schedule: Q04DX003 (ip), vehicle: saline with Tween-80
[16] = dose: 400.0 mg/kg/injection, schedule: Q01DX001 (ip), vehicle: Klucel (hydroxypropylcellulose) (HPC)
[17] = dose: 400.0 mg/kg/injection, schedule: Q04DX003 (ip), vehicle: saline with Tween-80
[18] = dose: 100.0 mg/kg/injection, schedule: Q01DX001 (ip), vehicle: carboxymethylcellulose (CMC)
[19] = dose: 200.0 mg/kg/injection, schedule: Q01DX001 (ip), vehicle: carboxymethylcellulose (CMC)
[20] = dose: 400.0 mg/kg/injection, schedule: Q01DX001 (ip), vehicle: carboxymethylcellulose (CMC)
[21] = dose: 100.0 mg/kg/injection, schedule: Q04DX002 (ip), vehicle: saline with Tween-80
[22] = dose: 200.0 mg/kg/injection, schedule: Q04DX002 (ip), vehicle: saline with Tween-80
[23] = dose: 400.0 mg/kg/injection, schedule: Q04DX002 (ip), vehicle: saline with Tween-80
[24] = dose: 50.0 mg/kg/injection, schedule: Q04DX002 (ip), vehicle: saline with Tween-80

Measured: T/C

CN(C)C(=O)c1cc(C(=O)N(C)C)c[n+](Cc2c(Cl)cccc2Cl)c1
inactive: dose: 18.75 mg/kg/injection, schedule: Q01DX009 (ip), vehicle: saline 95 % of control | dose: 37.5 mg/kg/injection, schedule: Q01DX009 (ip), vehicle: saline 95 % of control | [1] 97 % of control | dose: 75.0 mg/kg/injection, schedule: Q01DX009 (ip), vehicle: saline 94 % of control | dose: 75.0 mg/kg/injection, schedule: Q04DX003 (ip), vehicle: saline 100 % of control | dose: 150.0 mg/kg/injection, schedule: Q01DX001 (ip), vehicle: saline 106 % of control | dose: 150.0 mg/kg/injection, schedule: Q04DX003 (ip), vehicle: saline 96 % of control | [2] 104 % of control

CC/C=C/c1cccc(OC)c1
inactive: [3] 102 % of control | [4] 105 % of control | [5] 96 % of control | [6] 110 % of control | [7] 95 % of control | [8] 96 % of control

CN1C(=O)NC2ON=C(c3ccccc3)C2C1=O (configuration not stated)
inactive: [3] 103 % of control | [4] 100 % of control | [5] 104 % of control | [6] 103 % of control | [7] 104 % of control | [8] 100 % of control

O=c1[nH]c(=S)[nH]c(Cc2ccccc2)c1CCO
inactive: [9] 96 % of control | [10] 108 % of control | [11] 96 % of control

CC(=O)OCC(OC(C)=O)C(OC(C)=O)C(C=O)OC(C)=O (configuration not stated)
inactive: [12] 105 % of control | [9] 90 % of control | [13] 93 % of control | [14] 97 % of control | [10] 93 % of control | [15] 88 % of control | [16] 105 % of control | [11] 88 % of control | [17] 91 % of control

COc1ccccc1NC(=O)Nc1ccccc1Cl
inactive: [9] 88 % of control | [13] 89 % of control | [10] 112 % of control | [15] 92 % of control | [11] 92 % of control | [17] 89 % of control

CCCCCC(C)(O)CCCCC
inactive: [18] 101 % of control | [19] 97 % of control | [20] 97 % of control

O=C(CC(NC(=O)OCc1ccccc1)c1nn[nH]n1)OCc1ccccc1 (configuration not stated)
inactive: [9] 101 % of control | [10] 103 % of control | [11] 90 % of control

Cc1ccc(NC(=O)Oc2ccc(OC(=O)Cc3ccccc3)cc2)cc1NC(=O)Oc1ccc(OC(=O)Cc2ccccc2)cc1
inactive: dose: 100.0 mg/kg/injection, schedule: Q01DX009 (ip), vehicle: other 96 % of control | dose: 200.0 mg/kg/injection, schedule: Q01DX009 (ip), vehicle: other 98 % of control | dose: 400.0 mg/kg/injection, schedule: Q01DX009 (ip), vehicle: other 93 % of control

Cc1cc(C)c(S(=O)(=O)c2c(C)cc(C)c([N+](=O)[O-])c2C)c(C)c1[N+](=O)[O-]
inactive: [3] 98 % of control | [4] 92 % of control | [5] 88 % of control | [6] 93 % of control | [7] 88 % of control | [8] 90 % of control

CCOc1ccc(Br)cc1/C=C1/NC(=O)NC1=O
inactive: [9] 95 % of control | [21] 102 % of control | [10] 101 % of control | [22] 97 % of control | [11] 98 % of control | [23] 97 % of control

O=C1NC(=O)C(=Cc2cc(Br)ccc2[N+](=O)[O-])C(=O)N1
inactive: [18] 91 % of control | [19] 104 % of control | [20] 91 % of control

C/C=[N+](/[O-])CC
inactive: dose: 100.0 mg/kg/injection, schedule: Q01DX009 (ip), vehicle: saline 102 % of control | dose: 100.0 mg/kg/injection, schedule: Q04DX003 (ip), vehicle: saline 102 % of control | dose: 200.0 mg/kg/injection, schedule: Q01DX009 (ip), vehicle: saline 101 % of control | dose: 200.0 mg/kg/injection, schedule: Q04DX003 (ip), vehicle: saline 105 % of control | dose: 400.0 mg/kg/injection, schedule: Q01DX009 (ip), vehicle: saline 101 % of control | dose: 400.0 mg/kg/injection, schedule: Q04DX003 (ip), vehicle: saline 110 % of control

BrCOCCCCOCBr
inactive: dose: 44.0 mg/kg/injection, schedule: Q01DX009 (ip), vehicle: saline with Tween-80 109 % of control | dose: 50.0 mg/kg/injection, schedule: Q01DX001 (ip), vehicle: saline with Tween-80 102 % of control | dose: 50.0 mg/kg/injection, schedule: Q01DX009 (ip), vehicle: saline with Tween-80 108 % of control | [24] 105 % of control | dose: 50.0 mg/kg/injection, schedule: Q04DX003 (ip), vehicle: saline with Tween-80 110 % of control | dose: 67.0 mg/kg/injection, schedule: Q01DX009 (ip), vehicle: saline with Tween-80 112 % of control | dose: 100.0 mg/kg/injection, schedule: Q01DX001 (ip), vehicle: saline with Tween-80 102 % of control | [9] 109 % of control | [21] 107 % of control | [13] 107 % of control | dose: 150.0 mg/kg/injection, schedule: Q01DX009 (ip), vehicle: saline with Tween-80 107 % of control | dose: 200.0 mg/kg/injection, schedule: Q01DX001 (ip), vehicle: saline with Tween-80 104 % of control | [10] 104 % of control | [22] 105 % of control | [15] 109 % of control | dose: 400.0 mg/kg/injection, schedule: Q01DX001 (ip), vehicle: saline with Tween-80 107 % of control | [23] 91 % of control | [17] 103 % of control

NC(=S)N/N=C(/C(=O)O)c1ccc([N+](=O)[O-])cc1
inactive: [12] 93 % of control | [4] 104 % of control | [14] 115 % of control | [6] 98 % of control | [16] 96 % of control | [8] 93 % of control

Clc1ccc2c(Cl)cc(Cl)nc2c1
inactive: [1] 92 % of control | [2] 87 % of control

CCCCCP(=O)(CCCCC)C1CCCC1
inactive: dose: 25.0 mg/kg/injection, schedule: Q04DX002 (ip), vehicle: saline with Tween-80 113 % of control | [24] 100 % of control | [21] 94 % of control and 90 % of control

O=C1C(=O)c2ccccc2C=C1C1CCCCC1
inactive: dose: 50.0 mg/kg/injection, schedule: Q01DX001 (ip), vehicle: carboxymethylcellulose (CMC) 97 % of control | [18] 114 % of control | [19] 97 % of control | [20] 107 % of control

CC(C)=NNc1cccc2cccc(N)c12
inactive: dose: 100.0 mg/kg/injection, schedule: Q01DX001 (ip), vehicle: saline 97 % of control | dose: 200.0 mg/kg/injection, schedule: Q01DX001 (ip), vehicle: saline 95 % of control | dose: 400.0 mg/kg/injection, schedule: Q01DX001 (ip), vehicle: saline 97 % of control

OCCNc1ncnc2ccccc12
inactive: [13] 98 % of control | [15] 104 % of control | [17] 104 % of control

CN(C)c1ccc(/C=N/NC(=O)c2ccccc2NC(=O)c2ccc(Cl)cc2)c(Cl)c1
inactive: [3] 95 % of control | [5] 90 % of control | [7] 90 % of control

COc1cc(NCCCCCNC(C)C)c2ncccc2c1
inactive: dose: 5.0 mg/kg/injection, schedule: Q04DX002 (ip), vehicle: saline with Tween-80 100 % of control | dose: 10.0 mg/kg/injection, schedule: Q04DX002 (ip), vehicle: saline with Tween-80 97 % of control | dose: 20.0 mg/kg/injection, schedule: Q04DX002 (ip), vehicle: saline with Tween-80 100 % of control

NC(=O)C(Cl)CCl (configuration not stated)
inactive: dose: 50.0 mg/kg/injection, schedule: Q04DX002 (ip), vehicle: Klucel (hydroxypropylcellulose) (HPC) 104 % of control | dose: 100.0 mg/kg/injection, schedule: Q04DX002 (ip), vehicle: Klucel (hydroxypropylcellulose) (HPC) 101 % of control | dose: 200.0 mg/kg/injection, schedule: Q04DX002 (ip), vehicle: Klucel (hydroxypropylcellulose) (HPC) 104 % of control

CC(=O)Nc1ccc(/C=C/C(=O)c2ccc(C)cc2)cc1
inactive: [12] 101 % of control | [4] 104 % of control | [14] 100 % of control | [6] 103 % of control | [16] 103 % of control | [8] 94 % of control
